Data from patent US20030199516A1, “Methods of treating infection by drug resistant bacteria” (Genesoft, Inc., priority 2001, published 2003).

Legend:
[1] = test system: Streptococcus pneumoniae ATCC 51422; experiment: NCCLS broth microdilution MIC; format: cell-based; conditions: Col. E = S. pneumoniae ATCC 51422 (PRSP)
Description: (§1) In vitro antibacterial activity data were collected for the following Gram-positive bacteria: Staphylococcus aureus (ATCC 27660, ATCC 33591 and ATCC 43300, all methicillin resistant strains (MRSA's)); Streptococcus pneumoniae (ATCC 51422, a penicillin resistant strain (PRSP)), Enterococcus faecium (ATCC 51559, and/or a vancomycin resistant strain (VRE)). Additionally, antifungal activity data were collected for Candida albicans (ATCC 38247). Minimal inhibition concentrations (MIC's) were determined using the National Committee for Clinical Laboratory Standards (NCCLS) broth microdilution assay in microtiter plates, as set forth in: (1) the guidelines of the National Committee for Clinical Laboratory Standards (NCCLS) Document M7-A4 (NCCLS, 1997); (2) the guidelines of the National Committee for Clinical Laboratory Standards (NCCLS) Document M11-A4 (NCCLS, 1997); and (3) the guidelines and reference method of the National Committee for Clinical Laboratory Standards (NCCLS) Document M27-T (NCCLS, 1995). For antifungal essays, the method recommended in Murray, PR., 1995 Manual of Clinical Microbiology (ASM Press, Washington, D.C.), was employed.

[2] = test system: Enterococcus faecium ATCC 51559; experiment: NCCLS broth microdilution MIC; format: cell-based; conditions: Col. D = E. faecium ATCC 51559 (VRE)
Description: as §1

[3] = test system: Candida albicans ATCC 38247; experiment: Antifungal MIC; format: cell-based; conditions: Col. F = C. albicans ATCC 38247
Description: as §1

[4] = target: target sequence […] (351 bp fragment, Plasmid A); experiment: Quantitative DNase I footprint titration; format: binding; conditions: AAAAAGTACAAAAA, 351 bp A; 22° C., pH 7.0; read-out: Dissociation Constant Kd
Description: (§2) Compounds (1) through (20) according to this invention were screened for their ability to bind to specified DNA target sequences, using DNase I footprinting. Generally, the procedure described in Dervan, WO 98/50582 (1998), was followed.
(§3) Three double stranded circular plasmids A, B, and C were used to prepare double stranded DNA-binding probes containing the target sequences for the DNase I footprint titration experiments. Plasmids A, B, and C had nucleotide sequences given by SEQ ID NO. I, SEQ ID NO. II, and SEQ ID NO. III, respectively.
(§4) The 3′-P32 end-labeled EcoRI/PvuII fragments from each plasmid were prepared by digesting the plasmids with EcoRI and PvuII with simultaneous fill-in using Sequenase v. 2.0, [alpha-P32]-deoxyadenosine-5′-triphosphate, and [alpha-P32]-thymidine-5′-triphosphate, and isolating the cloned fragments by nondenaturing gel electrophoresis. A and G sequencing reactions were carried out as described (See Maxam and Gilbert, Methods Enzymol., 1980, 65, 499-560; Iverson and Dervan, Methods Enzymol., 1987, 15, 7823-7830; Sambrook et al., 1989, Molecular Cloning, 2nd ed., Cold Spring Harbor Laboratory Press: Cold Spring Harbor, N.Y.) Standard methods were used for all DNA manipulations (Sambrook et al., ibid.) The cut sites for EcoRI and PvuII are indicated by bars in the respective maps of Plasmids A, B, and C in FIGS. 5, 6, and 7.
(§5) The 351 base pair dsDNA restriction fragment (SEQ ID NO. IV) of Plasmid A contained the target sequences AAAAAGCAAAAA, AAAAAGACAAAAA, and AAAAAGTACAAAAA. The 310 base pair dsDNA restriction fragment (SEQ ID NO. V) of Plasmid B contained the target sequences AGTACT, AATACT, and ATTACT. The 352 base pair dsDNA restriction fragment (SEQ ID NO. VI) of Plasmid C contained the target sequences TGACAATTAAT, GACAATTAATCA, AATTAATCAT, ACAATTA, and ACAATTAAT. These fragments were used for quantitative DNase I footprinting experiments. Compounds used in the method of this invention bind to at least one of the target sites with a equal to or less than 100 nM, preferably equal to or less than 50 nM, and more preferably equal to or less than 20 nM. The target sequences were selected for the identity with, or similarity to, promoter sites for bacterial genes.
(§6) Quantitative DNase I footprint titration experiments were carried out as described previously (Dervan, WO 98/50582, 1998) with the following changes. All reactions were carried out in a total volume of 400 μL, with compound stock solution or water added to 15,000 cpm radiolabeled restriction fragment affording final solution conditions of 10 mM Tris HCl, 10 mM KCl, 10 mM MgCl2, 5 mM CaCl2, pH 7.0 and 0.01 nM, 0.1 nM, 1.0 nM, 10.0 nM compound or no compound for reference lanes. The compounds were allowed to equilbrate at 22° C. for 16 h. Footprinting reactions were initiated with addition of 10 μL of a DNase I stock solution (at the appropriate concentration to give ˜50% intact DNA) containing 1 mM DTT and allowed to proceed for 7 min at 22° C. The reactions were stopped, ethanol precipitated, resuspended in loading buffer, heat denatured, and placed on ice as described previously (Dervan WO 98/50582, 1998). The reaction products were separated on a precast 8% polyacrylamide denaturing sequencing Castaway gel with 32 preformed wells from Stratagene in 1×TBE at 2000 V. Gels were dried according to the manufacturer and exposed to a storage phosphor screen (Molecular Dynamics). Quantitation and data analysis were carried out as described in Dervan, WO 98/50582, 1998.

[5] = target: target sequence TGACAATTAAT (352 bp fragment, Plasmid C); experiment: Quantitative DNase I footprint titration; format: binding; conditions: 352 bp C, 22° C., pH 7.0, read-out: Dissociation Constant Kd
Description: as §2, §3, §4, §5, §6

S. aureus ATCC 27660 = experiment: NCCLS broth microdilution MIC; format: cell-based, Staphylococcus aureus; conditions: Col. A = S. aureus ATCC 27660 (MRSA)
Description: as §1

S. aureus ATCC 33591 = experiment: NCCLS broth microdilution MIC; format: cell-based, Staphylococcus aureus; conditions: Col. B = S. aureus ATCC 33591 (MRSA)
Description: as §1

[6] = target: target sequence GACAATTAATCA (352 bp fragment, Plasmid C); experiment: Quantitative DNase I footprint titration; format: binding; conditions: 352 bp C, 22° C., pH 7.0, read-out: Dissociation Constant Kd
Description: as §2, §3, §4, §5, §6

[7] = target: target sequence AATTAATCAT (352 bp fragment, Plasmid C); experiment: Quantitative DNase I footprint titration; format: binding; conditions: 352 bp C, 22° C., pH 7.0, read-out: Dissociation Constant Kd
Description: as §2, §3, §4, §5, §6

SMILES | Minimum Inhibitory Concentration (MIC) [1] | Minimum Inhibitory Concentration (MIC) [2] | Minimum Inhibitory Concentration (MIC) [3] [µg/mL] | Kd [4] [nM] | Kd [5] [nM] | Minimum Inhibitory Concentration (MIC) (S. aureus ATCC 27660) | Minimum Inhibitory Concentration (MIC) (S. aureus ATCC 33591) | Kd [6] [nM] | Kd [7] [nM]
CC(C)N(CCNC(=O)CCNC(=O)c1cc(NC(=O)c2cc(NC(=O)CCNC(=O)c3cc(NC(=O)c4cc(NC(=O)c5cc(Br)c(Br)s5)cn4C)cn3C)cn2C)cn1C)C(C)C [Compound 2] | ++ (++ = MIC ≦ 1) | + (+ = MIC ≦ 2) | >32 | 0.2 | 10 | ++ (++ = MIC ≦ 1) | − (− = MIC > 2) | – | –
Cn1cc(NC(=O)c2cc(NC(=O)CCNC(=O)c3cc(NC(=O)c4cc(NC(=O)c5cc(Br)c(Br)s5)cn4C)cn3C)cn2C)cc1C(=O)NCCC(=O)NCCN1CCCCC1 [Compound 3] | ++ (++ = MIC ≦ 1) | + (+ = MIC ≦ 2) | >32 | 0.01 | 2 | ++ (++ = MIC ≦ 1) | ++ (++ = MIC ≦ 1) | – | –
CCN(CC)CCCNC(=O)CCNC(=O)c1cc(NC(=O)c2cc(NC(=O)CCNC(=O)c3cc(NC(=O)c4cc(NC(=O)c5cc(Br)c(Br)s5)cn4C)cn3C)cn2C)cn1C [Compound 4] | ++ (++ = MIC ≦ 1) | − (− = MIC > 2) | >32 | 0.01 | 10 | ++ (++ = MIC ≦ 1) | ++ (++ = MIC ≦ 1) | – | –
CN(C)CC(C)(C)CNC(=O)CCNC(=O)c1cc(NC(=O)c2cc(NC(=O)CCNC(=O)c3cc(NC(=O)c4cc(NC(=O)c5cc(Br)c(Br)s5)cn4C)cn3C)cn2C)cn1C [Compound 5] | ++ (++ = MIC ≦ 1) | − (− = MIC > 2) | >32 | 0.01 | – | ++ (++ = MIC ≦ 1) | ++ (++ = MIC ≦ 1) | 2 | –
Cn1cc(NC(=O)c2cc(NC(=O)c3cc(NC(=O)c4sccc4Cl)cn3C)cn2C)cc1C(=O)NCCN1CCSCC1 [Compound 11] | ++ (++ = MIC ≦ 1) | + (+ = MIC ≦ 2) | >32 | – | – | + (+ = MIC ≦ 2) | − (− = MIC > 2) | ≤ 1 | –
Cn1cc(NC(=O)c2cc(NC(=O)c3cc(NC(=O)c4ccc(F)cc4F)cn3C)cn2C)cc1C(=O)NCCN1CCCCCC1 [Compound 15] | ++ (++ = MIC ≦ 1) | + (+ = MIC ≦ 2) | 8 | – | – | ++ (++ = MIC ≦ 1) | − (− = MIC > 2) | – | 2
Cn1cc(NC(=O)c2sc3ccccc3c2Cl)cc1C(=O)Nc1cc(C(=O)NCCN2CCCCC2)n(CCN2CCOCC2)c1 [Compound 16] | ++ (++ = MIC ≦ 1) | ++ (++ = MIC ≦ 1) | 4 | – | – | ++ (++ = MIC ≦ 1) | ++ (++ = MIC ≦ 1) | – | 10
Cn1cc(NC(=O)c2sc3ccccc3c2Cl)cc1-c1nc2ccc(C(=O)NCCN3CCCCC3)cc2[nH]1 [Compound 18] | ++ (++ = MIC ≦ 1) | ++ (++ = MIC ≦ 1) | >32 | – | – | ++ (++ = MIC ≦ 1) | ++ (++ = MIC ≦ 1) | – | 5
